Test results taken from publication PMC12802172, “Mechanistic insights into dual-active liver and blood-stage antiplasmodials” (mBio, 2025).
Like-named read-outs stand apart in the source and are kept apart here.

Columns and labels:
[1] = system: T1, Plasmodium falciparum UG654 (UG659 in methods); experiment: microbe, parasite or virus in culture; design: species or system P. falciparum in human erythrocytes; asexual blood-stage growth inhibition, synchronized ring-stage parasites, SYBR Green I fluorescence; conditions: Erythrocyte, 72 h, read-out: P. falciparum asexual blood stage activity (IC50 uM) / UG654 / IC50
T1 construct: UG659
Procedure: (§1) Compound dose-response assays were performed in flat-bottom 96-well plates. Tightly synchronized ring-stage parasites were adjusted to 1% parasitemia at 1% hematocrit and exposed to a twofold serial dilution of the compounds plated using a Tecan D300e digital dispenser. As controls, the assay plate included untreated parasites and parasites treated with 700 nM DHA only. After 72 h of incubation, parasite growth was measured by lysing the cells with a 2 × lysis buffer containing 10 mM Tris-HCl, 5 mM EDTA, 0.1% (wt/vol) saponin, and 1% (vol/vol) Triton X-100, supplemented with 2 × SYBR Green I (Molecular Probes). Fluorescence was recorded using a FluorStar Omega v5.11 plate reader. IC50 values were determined using GraphPad Prism v9, and statistical significance was assessed with a two-sided Mann-Whitney U test. Each assay was conducted in technical duplicate, with a minimum of three biological replicates, as described in the figure legends. P. falciparum parasites were cultured with fresh human erythrocytes at 3% hematocrit in RPMI 1640 medium (Gibco), supplemented with 0.5% Albumax II (Gibco), 25 mM HEPES (Sigma), 1× GlutaMAX (Gibco), and 25 μg/mL gentamicin (Gibco). The following parasite strains were used: 3D7, Dd2 (MR4, MRA-156, T. Wellems), GB4 (MR4, MRA-925, T. Wellems), UG659 (P. Rosenthal), Cam/PH0212C (R. Fairhurst), and Cam3.II/ PH0306-C (R. Fairhurst). The cultures were maintained under a controlled tri-gas atmosphere of 1% O2, 3% CO2, and 96% N2. Human erythrocytes were ethically sourced from healthy, anonymous donors through the Scottish National Blood Transfusion Service (SNBTS) or the National Health Services Blood and Transplant (NHSBT). The use of red blood cells was with approval from the University of Dundee Schools of Medicine and Life Sciences Research Ethics Committee, and the NHS Cambridgeshire Research Ethics Committee and Wellcome Sanger Institute Human Materials and Data Management Committee. Half-maximal growth inhibition concentrations were determined for the nine query compounds against chloroquine-sensitive (3D7) and multidrug-resistant (Dd2) parasites (Fig. 1B; Table S1). Compounds were further assessed against a panel of geographically diverse parasite strains, including two multidrug-resistant Cambodian isolates (resistant to artemisinin, chloroquine, and pyrimethamine) and strains from Uganda (UG659) and Ghana (GB4). […] However, a reduction in sensitivity to TCMDC-134122 was noted across all strains when compared to Dd2.

[2] = system: T2, Plasmodium falciparum CAM (PH0212C); experiment: microbe, parasite or virus in culture; design: species or system P. falciparum in human erythrocytes; asexual blood-stage growth inhibition, synchronized ring-stage parasites, SYBR Green I fluorescence; conditions: Erythrocyte, 72 h, read-out: P. falciparum asexual blood stage activity (IC50 uM) / CAM (PH0212C) / IC50
T2 construct: Cam/PH0212C
Procedure: as §1

[3] = system: T3, Plasmodium falciparum Cam3.II; experiment: microbe, parasite or virus in culture; design: species or system P. falciparum in human erythrocytes; asexual blood-stage growth inhibition, synchronized ring-stage parasites, SYBR Green I fluorescence; conditions: Erythrocyte, 72 h, read-out: P. falciparum asexual blood stage activity (IC50 uM) / Cam3.II / IC50
T3 construct: Cam3.II
Procedure: as §1

[4] = system: T4, P. falciparum Dd2; experiment: microbe, parasite or virus in culture; design: species or system P. falciparum in human erythrocytes; asexual blood-stage growth inhibition, synchronized ring-stage parasites, SYBR Green I fluorescence; conditions: Plasmodium falciparum, DD2, Erythrocyte, 72 h
T4 construct: Dd2
Procedure: as §1

[5] = system: T5, Plasmodium falciparum GB4; experiment: microbe, parasite or virus in culture; design: species or system P. falciparum in human erythrocytes; asexual blood-stage growth inhibition, synchronized ring-stage parasites, SYBR Green I fluorescence; conditions: Erythrocyte, 72 h, read-out: P. falciparum asexual blood stage activity (IC50 uM) / GB4 / IC50
T5 construct: GB4
Procedure: as §1

[6] = system: T6, P. falciparum 3D7; experiment: microbe, parasite or virus in culture; design: species or system P. falciparum in human erythrocytes; asexual blood-stage growth inhibition, synchronized ring-stage parasites, SYBR Green I fluorescence; conditions: Plasmodium falciparum, 3D7, Erythrocyte, 72 h; initial laboratory strain experiment (Table S1); read-out: P. falciparum asexual blood stage activity (IC50 uM) / 3D7
T6 construct: 3D7
Procedure: as §1

[7] = molecular target: T7, P. falciparum cytoplasmic isoleucyl-tRNA synthetase (PfcIRS) (Plasmodium falciparum, UniProt Q8IDZ9); experiment: AMP-Glo enzymatic assay with recombinant PfcIRS; assay type: biochemical
T7 construct: gene PF3D7_1332900; full-length PfcIRS (1-1273), C-terminal TEV-cleavable His10-FLAG tag removed, Sf9 expressed

[8] = initial laboratory strain experiment (Table S1), read-out: P. falciparum asexual blood stage activity (IC50 uM) / Dd2
[9] = strain panel experiment (Table S2), read-out: P. falciparum asexual blood stage activity (IC50 uM) / Dd2 / IC50

T7 sequence (Q8IDZ9 entry or part of it): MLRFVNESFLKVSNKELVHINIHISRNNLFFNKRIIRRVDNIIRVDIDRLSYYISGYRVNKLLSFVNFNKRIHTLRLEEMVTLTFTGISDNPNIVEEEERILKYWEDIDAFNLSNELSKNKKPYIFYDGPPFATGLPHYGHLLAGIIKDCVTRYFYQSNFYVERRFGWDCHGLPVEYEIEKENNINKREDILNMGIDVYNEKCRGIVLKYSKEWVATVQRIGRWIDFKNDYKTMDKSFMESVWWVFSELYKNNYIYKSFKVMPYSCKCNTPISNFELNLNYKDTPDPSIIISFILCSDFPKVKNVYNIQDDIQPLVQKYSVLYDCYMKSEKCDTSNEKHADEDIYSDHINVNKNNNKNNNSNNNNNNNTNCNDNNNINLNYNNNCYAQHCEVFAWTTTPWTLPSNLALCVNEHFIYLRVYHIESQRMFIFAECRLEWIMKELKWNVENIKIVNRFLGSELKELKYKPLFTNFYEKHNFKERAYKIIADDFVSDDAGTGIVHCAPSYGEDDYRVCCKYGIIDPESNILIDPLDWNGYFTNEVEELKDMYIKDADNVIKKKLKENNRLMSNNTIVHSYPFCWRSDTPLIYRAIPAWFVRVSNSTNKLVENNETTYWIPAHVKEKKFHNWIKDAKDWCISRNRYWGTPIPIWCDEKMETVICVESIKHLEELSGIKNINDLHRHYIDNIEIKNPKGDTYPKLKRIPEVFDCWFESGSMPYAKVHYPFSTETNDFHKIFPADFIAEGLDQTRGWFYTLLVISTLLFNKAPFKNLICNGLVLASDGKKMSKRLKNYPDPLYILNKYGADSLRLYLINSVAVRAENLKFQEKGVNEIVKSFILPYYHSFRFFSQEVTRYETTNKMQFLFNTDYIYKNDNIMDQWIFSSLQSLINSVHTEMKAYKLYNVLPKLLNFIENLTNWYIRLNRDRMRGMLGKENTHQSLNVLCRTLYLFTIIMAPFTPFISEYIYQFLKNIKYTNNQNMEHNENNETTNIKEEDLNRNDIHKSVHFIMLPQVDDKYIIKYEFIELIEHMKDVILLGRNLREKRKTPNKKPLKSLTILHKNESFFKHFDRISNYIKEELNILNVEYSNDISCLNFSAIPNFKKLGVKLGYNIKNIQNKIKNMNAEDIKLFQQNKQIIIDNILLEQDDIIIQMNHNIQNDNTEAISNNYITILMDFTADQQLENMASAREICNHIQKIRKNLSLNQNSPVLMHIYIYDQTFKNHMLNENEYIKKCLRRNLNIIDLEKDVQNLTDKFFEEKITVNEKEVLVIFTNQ

Compound | IC50 [1] [µM] | IC50 [2] [µM] | IC50 [3] [µM] | IC50 [4, 8] [µM] | IC50 [4, 9] [µM] | IC50 [5] [µM] | IC50 [6] [µM] | IC50 [7] [nM]
COc1ccc(-n2ncc(C(=O)N3CCC4(C3)C(=O)N(c3ccccc3)c3ccccc34)c2C)cc1 (stereo not shown) [TCMDC-134122] | 1.17 | 1.25 | 1.78 | 0.216 | 0.394 | 1.67 | 0.572 | 
c1ccn2c(Sc3ncnc4sccc34)ncc2c1 [TCMDC-124602] | 0.354 | 0.313 | 0.316 | 0.45 | 0.288 | 0.651 | 0.502 | 6590
CCOc1ccc2nc(NC(=O)c3csnn3)sc2c1 [TCMDC-125075] | 0.178 | 0.195 | 0.115 | 0.206 | 0.192 | 0.16 | 0.144 | 
COc1cc(-c2[nH]c(C(C)(C)CN)nc2-c2ccncc2)ccc1Br [TCMDC-140674] | 1.07 | 0.501 | 0.532 | 0.244 | 0.341 | 1.85 | 0.688 | 
Cc1cccc(C)c1CNc1cccc(-c2nc(C)c(C)[nH]2)c1 [TCMDC-133434] | 1.22 | 1.33 | 1.21 | 0.851 | 1.74 | 0.924 | 0.89 | 
Cc1cccc2[nH]c(-c3ccc(-c4cccc(NC(=O)C(C)CN5CCN(C)CC5)c4)cc3)nc12 (stereo not shown) [TCMDC-137144] | 2.18 | 1.2 | 1.39 | 1.4 | 1.39 | 1.94 | 0.912 | 
CC(C)(CN)c1cc(-c2ccc(Cl)c(O)c2)c(-c2ccncc2)o1 [TCMDC-141334] | 0.537 | 0.676 | 0.644 | 0.414 | 0.485 | 0.974 | 0.446 | 
Cc1cccc2[nH]c(-c3cccc(-c4cccc(NC(=O)CCc5c[nH]cn5)c4)c3)nc12 [TCMDC-132158] | 1.82 | 0.654 | 0.757 | 0.609 | 0.932 | 1.72 | 0.616 | 
CC(C)(C)c1cc(Cl)cc(C(=O)Nc2cc([N+](=O)[O-])ccc2Cl)c1O [TCMDC-142214] | 3.07 | 3.8 | 2.78 | 3.17 | 2.88 | 3.08 | 3.65 | 
